Results published in the supplement of paper PMC10307832.

Experiments:
Test in all cases: relative viability (nuclei count vs DMSO), 5 days (fraction); higher = more cells survive
[1] = compound: C[As](C)SC[C@H](NC(=O)CC[C@H](N)C(=O)O)C(=O)NCC(=O)O [Darinaparsin] + CC(=O)c1c(C)c2cnc(Nc3ccc(N4CCNCC4)cn3)nc2n(C2CCCC2)c1=O [Palbociclib] (partner 0.5 µM)
Procedure, shortened: (§1)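 Cells from lung cancer lines were seeded into 1536-well plates and, one day later, dosed by pin tool. Treatments were either a single drug or a fixed dose of an anchor drug with five library-drug doses (not always all listed) in √10 steps. After 5 days, nuclei were stained in a one-step fixation (final 0.05% Triton X-100, 1% formaldehyde, 1 ug/ml Hoechst) and counted on 4× images, and relative viability is the treated-to-vehicle nuclei ratio, as the median of duplicate plates.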

AZ628 + OSI-027 = compound: CC1=C(C=C(C=C1)NC(=O)C2=CC(=CC=C2)C(C)(C)C#N)NC3=CC4=C(C=C3)N=CN(C4=O)C [AZ628] + COc1cccc2cc(-c3nc([C@H]4CC[C@H](C(=O)O)CC4)n4ncnc(N)c34)[nH]c12 [OSI-027] (partner 0.5 µM)
Procedure, shortened: as §1

[2] = compound: C[As](C)SC[C@H](NC(=O)CC[C@H](N)C(=O)O)C(=O)NCC(=O)O [Darinaparsin] + CS(=O)(=O)N1CCN(Cc2cc3nc(-c4cccc5[nH]ncc45)nc(N4CCOCC4)c3s2)CC1 [Pictilisib] (partner 1 µM)
Procedure, shortened: as §1

Darinaparsin + Foretinib = compound: C[As](C)SC[C@H](NC(=O)CC[C@H](N)C(=O)O)C(=O)NCC(=O)O [Darinaparsin] + COc1cc2c(Oc3ccc(NC(=O)C4(C(=O)Nc5ccc(F)cc5)CC4)cc3F)ccnc2cc1OCCCN1CCOCC1 [Foretinib] (partner 0.25 µM)
Procedure, shortened: as §1

Row | Cell Line | relative viability ([1]; first compound 0.08 µM) | relative viability ([1]; first compound 0.8 µM) | relative viability ([1]; first compound 2.53 µM) | relative viability ([1]; first compound 8 µM) | relative viability (AZ628 + OSI-027; first compound 0.08 µM) | relative viability (AZ628 + OSI-027; first compound 0.253 µM) | relative viability (AZ628 + OSI-027; first compound 0.8 µM) | relative viability (AZ628 + OSI-027; first compound 2.53 µM) | relative viability (AZ628 + OSI-027; first compound 8 µM) | relative viability ([2]; first compound 0.08 µM) | relative viability ([2]; first compound 0.8 µM) | relative viability ([2]; first compound 2.53 µM) | relative viability ([2]; first compound 8 µM) | relative viability (Darinaparsin + Foretinib; first compound 0.08 µM) | relative viability (Darinaparsin + Foretinib; first compound 0.8 µM) | relative viability (Darinaparsin + Foretinib; first compound 2.53 µM) | relative viability (Darinaparsin + Foretinib; first compound 8 µM)
1 | NCI-H1666 | 0.666 | 0.673 | 0.634 | 0.678 | 0.827 | 0.789 | 0.676 | 0.744 | 0.656 | 0.418 | 0.458 | 0.454 | 0.53 | 0.995 | 0.888 | 1.19 | 1.06
2 | A-427 | 0.585 | 0.494 | 0.567 | 0.549 | 0.336 | 0.286 | 0.236 | 0.197 | 0.169 | 0.893 | 0.761 | 0.757 | 0.856 | 1.35 | 1.15 | 0.989 | 1.32
3 | EKVX | 0.451 | 0.365 | 0.366 | 0.38 | 0.715 | 0.673 | 0.804 | 0.764 | 0.572 | 0.508 | 0.404 | 0.452 | 0.488 | 0.835 | 0.445 | 0.743 | 0.786
4 | NCI-H650 | 0.325 | 0.331 | 0.339 | 0.322 | 0.664 | 0.687 | 0.766 | 0.689 | 0.678 | 0.856 | 0.834 | 0.922 | 1.13 | 1.09 | 1.05 | 1.13 | 1.03
5 | NCI-H2087 | 0.225 | 0.215 | 0.169 | 0.204 | 0.52 | 0.335 | 0.213 | 0.274 | 0.13 | 1.06 | 0.881 | 0.652 | 0.997 | 1.44 | 1.09 | 1.03 | 1.37
6 | NCI-H1755 | 0.483 | 0.457 | 0.46 | 0.469 | 0.683 | 0.74 | 0.781 | 0.636 | 0.575 | 0.461 | 0.398 | 0.355 | 0.38 | 0.994 | 0.931 | 0.868 | 1.08
7 | COR-L 105 | 0.456 | 0.373 | 0.397 | 0.382 | 0.751 | 0.837 | 0.795 | 0.763 | 0.46 | 0.446 | 0.411 |  | 0.429 | 1.12 | 1.2 | 1.1 | 1.04
8 | NCI-H838 | 0.245 | 0.216 | 0.229 | 0.229 | 0.487 | 0.413 | 0.303 | 0.325 | 0.354 | 0.481 | 0.407 | 0.39 | 0.472 | 1.19 | 1.03 | 0.856 | 1.23
9 | NCI-H1993 | 0.586 | 0.743 | 0.59 | 0.68 | 0.541 | 0.578 | 0.53 | 0.594 | 0.577 | 0.885 | 0.783 | 0.695 | 0.848 | 0.738 | 0.761 | 0.788 | 0.921
10 | NCI-H1650 | 0.377 | 0.321 | 0.325 | 0.375 | 0.642 | 0.793 | 0.666 | 0.557 | 0.458 | 0.666 | 0.503 | 0.623 | 0.59 | 0.869 | 1.06 | 0.791 | 1.33
11 | HARA | 0.25 | 0.257 | 0.21 | 0.29 | 0.322 | 0.432 | 0.472 | 0.439 | 0.245 | 0.393 | 0.371 | 0.324 | 0.413 | 0.944 | 0.927 | 0.712 | 0.938
12 | PC-3 [JPC-3] | 0.553 | 0.516 | 0.542 | 0.547 | 0.791 | 0.731 | 0.753 | 0.815 | 0.683 | 0.747 | 0.674 | 0.63 | 0.877 | 1.13 | 1.03 | 1.1 | 1.13
13 | ABC-1 | 0.879 | 0.6 | 0.744 | 0.729 | 0.644 | 0.402 | 0.53 | 0.491 | 0.297 | 0.793 | 0.648 | 0.738 | 0.904 | 1.36 | 0.995 | 1.18 | 1.08
14 | NCI-H441 | 0.264 | 0.214 | 0.21 | 0.188 | 0.801 | 0.558 | 0.634 | 0.588 | 0.492 | 0.566 | 0.498 | 0.424 | 0.548 | 1.2 | 1.25 | 1.07 | 0.902
15 | NCI-H1793 | 0.359 | 0.374 |  | 0.369 | 0.355 | 0.226 | 0.252 | 0.247 | 0.193 | 0.25 | 0.31 | 0.355 | 0.299 | 0.766 | 0.77 | 0.524 | 0.829
16 | NCI-H2126 | 0.371 | 0.344 | 0.352 | 0.334 | 0.793 | 0.655 | 0.651 | 0.728 | 0.594 | 0.506 | 0.499 | 0.474 | 0.533 | 1.17 | 1.1 | 1.05 | 1.13
17 | BEN | 0.492 | 0.445 | 0.488 | 0.43 | 0.318 | 0.278 | 0.32 | 0.281 | 0.267 | 0.709 | 0.636 | 0.498 | 0.659 | 0.668 | 0.708 | 0.621 | 0.691
18 | HCC-366 | 0.603 |  | 0.368 | 0.533 | 0.895 | 0.63 | 0.662 | 0.62 | 0.209 | 0.108 | 0.13 | 0.158 | 0.162 | 0.905 | 0.91 | 0.965 | 1.14
19 | LCLC-103H | 0.49 | 0.427 | 0.49 | 0.533 | 0.418 | 0.438 | 0.531 | 0.403 | 0.423 | 0.52 | 0.566 | 0.593 | 0.604 | 0.858 | 0.745 | 0.626 | 0.858
20 | NCI-H1944 | 0.314 | 0.339 | 0.31 | 0.404 | 0.439 | 0.335 | 0.331 | 0.319 | 0.301 | 0.359 | 0.307 | 0.348 | 0.374 | 0.917 | 0.898 | 0.731 | 0.995
21 | HCC-827 | 0.514 | 0.519 | 0.414 | 0.477 | 0.741 | 0.82 | 0.796 | 0.703 | 0.418 | 1.06 | 0.907 | 0.901 | 1.01 | 1.16 | 1.09 | 1.02 | 1.06
22 | NCI-H727 | 0.692 | 0.573 | 0.698 | 0.585 | 0.626 | 0.402 | 0.328 | 0.397 | 0.338 | 0.405 | 0.425 | 0.297 | 0.465 | 0.917 | 0.863 | 1.11 | 1
23 | NCI-H1915 | 0.573 | 0.52 | 0.502 | 0.539 | 0.447 | 0.476 | 0.428 | 0.355 | 0.243 | 0.99 | 0.902 | 0.955 | 0.991 | 1.2 | 1.08 | 0.958 | 1.25
24 | NCI-H2347 | 0.43 | 0.404 | 0.447 | 0.4 | 0.337 | 0.377 | 0.396 | 0.339 | 0.254 | 0.708 | 0.636 | 0.694 | 0.783 | 0.859 | 1.01 | 0.994 | 1.05
25 | NCI-H647 | 0.467 | 0.406 | 0.357 | 0.561 | 0.666 | 0.722 | 0.495 | 0.537 | 0.462 | 0.449 | 0.396 | 0.488 | 0.47 | 1.53 | 1.31 | 1.01 | 1.45
26 | CAL-12T | 0.446 | 0.387 | 0.408 | 0.478 | 0.891 | 0.572 | 0.408 | 0.345 | 0.267 | 0.392 | 0.335 | 0.473 | 0.478 | 1.23 | 0.983 | 1.12 | 1.14
